Data from patent publication US11225482B2, “Dihydropyrrolopyrimidines for the treatment and prophylaxis of hepatitis B virus infection” (Hoffmann-La Roche Inc., priority 2017, dated 2022).

Legend:
[1] = system: HBV DNA; test: HBV DNA assay (real-time qPCR/TaqMan) in HepG2.2.15 cells; type: cell-based; details: Hepatitis B virus, 144 h, extracellular HBV DNA in supernatant, six days after initial administration, qPCR, read-out: IC50 (Anti HBV DNA production activity)
Description: (§1) HepG2.2.15 cells (Acs et al. Proc Natl Acad Sci USA, 84, (1987), 4641-4), a constitutively HBV-expressing cell line were cultured in DMEM+Glutamax-I medium (Invitrogen, Carlsbad, Calif., USA), supplemented with 10% fetal bovine serum (Invitrogen) and G418 (Invitrogen) at a final concentration of 200 mg/L and maintained in 5% CO2 at 37° C.
The assay employs real-time qPCR (TaqMan) to directly measure extracellular HBV DNA copy number in the cell supernatant, HepG2.2.15 cells were plated in 96-well microtiter plates before treatment with complete medium (DMEM, Glutamax, 10% FBS, 1% Penicillin/Streptomycin, 250 μg/mL Genetycin, final DMSO concentration is 1%). Only the interior wells were utilized to reduce “edge effects” observed during cell culture, the exterior wells were filled with complete medium to help minimize sample evaporation. The HepG2.2.15 cells were treated 1 h later with various concentrations of a test compound in duplicate (top concentration used at 5 μM, 2 μM or 0.5 μM according to the HBsAg IC50 observed, with ⅓ successive dilutions (total of 10 dilutions). Six days following the initial administration of the test compound, the cell culture supernatant was collected; DNA extraction was performed by automated system (Magnapure) and then used in a real-time qPCR/TaqMan assay to determine HBV DNA copy numbers. Antiviral activity was calculated from the reduction in HBV DNA levels (IC50).

[2] = system: HBsAg; test: HBsAg assay (CLIA) in HepG2.2.15 cells; type: cell-based, HBV; details: Hepatitis B virus, HepG2.2.15, read-out: IC50 (HBsAg assay)
Description: as §1
HepG2.2.15 cells were seeded in duplicate into white, 96-well plates at 1.5×10^4 cells/well. The cells were treated with a three-fold serial dilution series of the compounds in DMSO. The final DMSO concentration in all wells was 1% and DMSO was used as no drug control.
The HBsAg chemiluminescence immunoassay (CLIA) kit (Autobio Diagnostics Co., Zhengzhou, China, Catalog number: CL0310-2) was used to measure the levels of secreted HBV antigens semi-quantitatively. For the detection 50 μL/well culture supernatant was used and HBsAg was quantified using HBsAg chemiluminescence immunoassay (CLIA) kit (Autobio Diagnostics Co., Zhengzhou, China, Catalog number: CL0310-2), 50 μL of the supernatant was transferred to the CLIA assay plate and 50 μL of enzyme conjugate reagent was added into each well. The plates were sealed and gently agitated for 1 hour at room temperature. The supernatant-enzyme-mixture was discarded and wells were washed 6 times with 300 μL of PBS. The residual liquid was removed by plating the CLIA plate […] on absorbent tissue paper. 25 μL of substrates A and B were added to each well. Luminance was measured using a luminometer (Mithras LB 940 Multimode Microplate Reader) after 10 minutes incubation. Dose-response curves were generated and the IC50 value was extrapolated by using the E-WorkBook Suite (ID Business Solutions Ltd., Guildford, UK). The IC50 was defined as the compound concentration (or conditioned media log dilution) at which HBsAg secretion was reduced by 50% compared to the no drug control.

Compound	IC50 [1] [nM]	IC50 [2] [nM]
Cc1nc(C(=O)N2Cc3nc(-c4ncccn4)ncc3C2C)sc1C (centres unmarked) [Example 10, (4,5-Dimethylthiazol-2-yl)-(5-methyl-2-pyrimidin-2-yl-5,7-dihydropyrrolo[3,4-d]pyrimidin-6-yl)methanone]	67.6	282
CC1c2cnc(-c3ncccn3)nc2CN1C(=O)c1nn(C)c2ccccc12 (centres unmarked) [Example 12, (1-Methylindazol-3-yl)-(5-methyl-2-pyrimidin-2-yl-5,7-dihydropyrrolo[3,4-d]pyrimidin-6-yl)methanone]	5.6	158
Cc1c(C(=O)N2Cc3nc(-c4ncccn4)ncc3C2C)oc2ccccc12 (centres unmarked) [Example 21, (3-Methylbenzofuran-2-yl)-(5-methyl-2-pyrimidin-2-yl-5,7-dihydropyrrolo[3,4-d]pyrimidin-6-yl)methanone]	26.2	219
COc1cc(F)nc(N2Cc3nc(-c4ncccn4)ncc3C2C)c1 (centres unmarked) [Example 30, 6-(6-Fluoro-4-methoxy-2-pyridyl)-5-methyl-2-pyrimidin-2-yl-5,7-dihydropyrrolo[3,4-d]pyrimidine]	6.5	50
CC1c2cnc(-c3ncccn3)nc2CN1c1cc(N2CCCC2)cc(F)n1 (centres unmarked) [Example 40, 6-(6-Fluoro-4-pyrrolidin-1-yl-2-pyridyl)-5-methyl-2-pyrimidin-2-yl-5,7-dihydropyrrolo[3,4-d]pyrimidine]		16
CC1c2cnc(-c3ncccn3)nc2CN1c1cc(N2CCCCC2)cc(F)n1 (centres unmarked) [Example 41, 6-[6-Fluoro-4-(1-piperidyl)-2-pyridyl]-5-methyl-2-pyrimidin-2-yl-5,7-dihydropyrrolo[3,4-d]pyrimidine]		41
CC1c2cnc(-c3ncccn3)nc2CN1c1cc(N2CCOCC2)cc(F)n1 (centres unmarked) [Example 42, 4-[2-Fluoro-6-(5-methyl-2-pyrimidin-2-yl-5,7-dihydropyrrolo[3,4-d]pyrimidin-6-yl)-4-pyridyl]morpholine]		40
CC1c2cnc(-c3ncccn3)nc2CN1c1cc(N2CCNCC2)cc(F)n1 (centres unmarked) [Example 43, 6-(6-Fluoro-4-piperazin-1-yl-2-pyridyl)-5-methyl-2-pyrimidin-2-yl-5,7-dihydropyrrolo[3,4-d]pyrimidine]		4270
CC1c2cnc(-c3ncccn3)nc2CN1c1cc(N2CCN(S(C)(=O)=O)CC2)cc(F)n1 (centres unmarked) [Example 44, 6-[6-Fluoro-4-(4-methylsulfonylpiperazin-1-yl)-2-pyridyl]-5-methyl-2-pyrimidin-2-yl-5,7-dihydropyrrolo[3,4-d]pyrimidine]		140
CC1c2cnc(-c3ncccn3)nc2CN1c1cc(N2CCNC(=O)C2)cc(F)n1 (centres unmarked) [Example 45, 4-[2-Fluoro-6-(5-methyl-2-pyrimidin-2-yl-5,7-dihydropyrrolo[3,4-d]pyrimidin-6-yl)-4-pyridyl]piperazin-2-one]		160
